Reference: the supplement of paper PMC4862054

System: MDA-MB-436
Assay: normalised response (% of control), CellTiter-Glo; higher = more viable cells (100 = DMSO, 0 = benzethonium chloride kill control)
Conditions: incubation time: 72 h
Method in brief: (§1)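 Normalised signals at single concentrations make up the values. They come from breast cancer cell lines seeded (20 µl suspension) into 384-well plates with compound at 5 concentrations in 10-fold steps over a compound-specific 10,000-fold range, incubated 72 h, and read for CellTox Green fluorescence then CellTiter-Glo luminescence. Each plate was normalised to 0.1 % DMSO (100) and a positive kill control (0).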

SMILES | normalised response
C[C@]12O[C@H](C[C@]1(O)CO)n1c3ccccc3c3c4c(c5c6ccccc6n2c5c31)CNC4=O [Lestaurtinib] (0.1 nM) | 94%
O=C1c2c(O)ccc(O)c2C(=O)c2c(NCCNCCO)ccc(NCCNCCO)c21 [Mitoxantrone] (0.1 nM) | 84.4%
O=C1c2c(O)ccc(O)c2C(=O)c2c(NCCNCCO)ccc(NCCNCCO)c21 [Mitoxantrone] (1 nM) | 98.8%
Nc1ccccc1NC(=O)c1ccc(CNc2nccc(-c3cccnc3)n2)cc1 [Mocetinostat] (1 nM) | 111%
COc1nc(N)nc2c1ncn2[C@@H]1O[C@H](CO)[C@@H](O)[C@@H]1O [Nelarabine] (1 nM) | 86%
COc1nc(N)nc2c1ncn2[C@@H]1O[C@H](CO)[C@@H](O)[C@@H]1O [Nelarabine] (10 nM) | 97.7%
Cc1ccc(Nc2nccc(N(C)c3ccc4c(C)n(C)nc4c3)n2)cc1S(N)(=O)=O [Pazopanib] (1 nM) | 97.3%
CS(=O)(=O)N1CCN(Cc2cc3nc(-c4cccc5[nH]ncc45)nc(N4CCOCC4)c3s2)CC1 [Pictilisib] (10 nM) | 98.9%
O=C(NC[C@H](O)CO)c1ccncc1Nc1ccc(I)cc1F [Pimasertib] (1 nM) | 99.5%
O=C(CCBr)N1CCN(C(=O)CCBr)CC1 [Pipobroman] (1 nM) | 91.7%
O=C(CCBr)N1CCN(C(=O)CCBr)CC1 [Pipobroman] (10 nM) | 98.8%
c1cc(CN2CCCNCCNCCCNCC2)ccc1CN1CCCNCCNCCCNCC1 [Plerixafor] (1 nM) | 94.3%
C[C@]12C=CC(=O)C=C1CC[C@@H]1[C@@H]2[C@@H](O)C[C@@]2(C)[C@H]1CC[C@]2(O)C(=O)CO [Prednisolone] (1 nM) | 102%
C[C@]12C=CC(=O)C=C1CC[C@@H]1[C@@H]2[C@@H](O)C[C@@]2(C)[C@H]1CC[C@]2(O)C(=O)CO [Prednisolone] (10 nM) | 95.9%
Cn1cc(CNCC2CCN(c3ncc(C(=O)NO)cn3)CC2)c2ccccc21 [Quisinostat] (0.1 nM) | 101%
Cn1cc(CNCC2CCN(c3ncc(C(=O)NO)cn3)CC2)c2ccccc21 [Quisinostat] (1 nM) | 104%

System: BT-474
Assay: as above
Conditions: incubation time: 72 h
Method in brief: as §1

SMILES | normalised response
Cc1c(CN2CCN(C(=O)[C@H](C)O)CC2)sc2c(N3CCOCC3)nc(-c3cnc(N)nc3)nc12 [GDC-0980] (1 nM) | 111%
Cc1c(CN2CCN(C(=O)[C@H](C)O)CC2)sc2c(N3CCOCC3)nc(-c3cnc(N)nc3)nc12 [GDC-0980] (10 nM) | 106%
Cc1cccc(-c2nn3c(c2-c2ccnc4ccc(C(N)=O)cc24)CCC3)n1 [Galunisertib] (0.1 nM) | 108%
Nc1cccc2c1CN(C1CCC(=O)NC1=O)C2=O (stereo not given) [Lenalidomide] (1 nM) | 97%
Nc1cccc2c1CN(C1CCC(=O)NC1=O)C2=O (stereo not given) [Lenalidomide] (10 nM) | 97.8%
C[C@]12O[C@H](C[C@]1(O)CO)n1c3ccccc3c3c4c(c5c6ccccc6n2c5c31)CNC4=O [Lestaurtinib] (0.1 nM) | 96.7%
O=C1c2c(O)ccc(O)c2C(=O)c2c(NCCNCCO)ccc(NCCNCCO)c21 [Mitoxantrone] (0.1 nM) | 91.8%
O=C1c2c(O)ccc(O)c2C(=O)c2c(NCCNCCO)ccc(NCCNCCO)c21 [Mitoxantrone] (1 nM) | 94.5%
Nc1ccccc1NC(=O)c1ccc(CNc2nccc(-c3cccnc3)n2)cc1 [Mocetinostat] (1 nM) | 100%
COc1nc(N)nc2c1ncn2[C@@H]1O[C@H](CO)[C@@H](O)[C@@H]1O [Nelarabine] (1 nM) | 87.9%
COc1nc(N)nc2c1ncn2[C@@H]1O[C@H](CO)[C@@H](O)[C@@H]1O [Nelarabine] (10 nM) | 87.5%
Cc1ccc(Nc2nccc(N(C)c3ccc4c(C)n(C)nc4c3)n2)cc1S(N)(=O)=O [Pazopanib] (1 nM) | 98.1%
CS(=O)(=O)N1CCN(Cc2cc3nc(-c4cccc5[nH]ncc45)nc(N4CCOCC4)c3s2)CC1 [Pictilisib] (10 nM) | 98.3%
O=C(NC[C@H](O)CO)c1ccncc1Nc1ccc(I)cc1F [Pimasertib] (1 nM) | 100%
O=C(CCBr)N1CCN(C(=O)CCBr)CC1 [Pipobroman] (1 nM) | 96.6%
O=C(CCBr)N1CCN(C(=O)CCBr)CC1 [Pipobroman] (10 nM) | 102%
c1cc(CN2CCCNCCNCCCNCC2)ccc1CN1CCCNCCNCCCNCC1 [Plerixafor] (1 nM) | 95.8%
C[C@]12C=CC(=O)C=C1CC[C@@H]1[C@@H]2[C@@H](O)C[C@@]2(C)[C@H]1CC[C@]2(O)C(=O)CO [Prednisolone] (1 nM) | 106%
C[C@]12C=CC(=O)C=C1CC[C@@H]1[C@@H]2[C@@H](O)C[C@@]2(C)[C@H]1CC[C@]2(O)C(=O)CO [Prednisolone] (10 nM) | 112%
Cn1cc(CNCC2CCN(c3ncc(C(=O)NO)cn3)CC2)c2ccccc21 [Quisinostat] (0.1 nM) | 104%
Cn1cc(CNCC2CCN(c3ncc(C(=O)NO)cn3)CC2)c2ccccc21 [Quisinostat] (1 nM) | 107%

System: CAL-51
Assay: as above
Conditions: incubation time: 72 h
Method in brief: as §1

SMILES | normalised response
Cc1c(CN2CCN(C(=O)[C@H](C)O)CC2)sc2c(N3CCOCC3)nc(-c3cnc(N)nc3)nc12 [GDC-0980] (1 nM) | 115%
Cc1c(CN2CCN(C(=O)[C@H](C)O)CC2)sc2c(N3CCOCC3)nc(-c3cnc(N)nc3)nc12 [GDC-0980] (10 nM) | 90.2%
Cc1cccc(-c2nn3c(c2-c2ccnc4ccc(C(N)=O)cc24)CCC3)n1 [Galunisertib] (0.1 nM) | 76.9%
Nc1cccc2c1CN(C1CCC(=O)NC1=O)C2=O (stereo not given) [Lenalidomide] (1 nM) | 113%
Nc1cccc2c1CN(C1CCC(=O)NC1=O)C2=O (stereo not given) [Lenalidomide] (10 nM) | 73.6%
C[C@]12O[C@H](C[C@]1(O)CO)n1c3ccccc3c3c4c(c5c6ccccc6n2c5c31)CNC4=O [Lestaurtinib] (0.1 nM) | 91.1%
O=C1c2c(O)ccc(O)c2C(=O)c2c(NCCNCCO)ccc(NCCNCCO)c21 [Mitoxantrone] (0.1 nM) | 101%
O=C1c2c(O)ccc(O)c2C(=O)c2c(NCCNCCO)ccc(NCCNCCO)c21 [Mitoxantrone] (1 nM) | 73.6%
Nc1ccccc1NC(=O)c1ccc(CNc2nccc(-c3cccnc3)n2)cc1 [Mocetinostat] (1 nM) | 85.2%
COc1nc(N)nc2c1ncn2[C@@H]1O[C@H](CO)[C@@H](O)[C@@H]1O [Nelarabine] (1 nM) | 117%
COc1nc(N)nc2c1ncn2[C@@H]1O[C@H](CO)[C@@H](O)[C@@H]1O [Nelarabine] (10 nM) | 77.6%
Cc1ccc(Nc2nccc(N(C)c3ccc4c(C)n(C)nc4c3)n2)cc1S(N)(=O)=O [Pazopanib] (1 nM) | 98.5%
CS(=O)(=O)N1CCN(Cc2cc3nc(-c4cccc5[nH]ncc45)nc(N4CCOCC4)c3s2)CC1 [Pictilisib] (10 nM) | 110%
